Patent US20150299188A1, “HETEROCYCLIC COMPOUND” (priority 2012, published 2015)

tested on: FLAP (5-lipoxygenase activating protein); assay: In vitro binding test: displacement of [3H]-7-chloro-3-(5-((3-fluoropyridin-2-yl)methoxy)-2-methylphenyl)-3,4-dihydroquinazolin-2(1H)-one from Sf9 microsome fractions; set-up: species or system human and mouse; conditions: Sf9 microsome fractions expressing FLAP; 100% = radioligand binding with 10 μM sodium 3-(3-(tert-butylsulfanyl)-1-(4-chlorobenzyl)-5-isopropyl-1H-indol-2-yl)-2,2-dimethylpropanoate, 0% = DMSO; test compound concentration not given
Experimental: As an assay buffer, 100 mM Tris-HCl, pH 7.5, 140 mM NaCl, 2 mM EDTA, 0.5 mM dithiothreitol, 5% glycerol, 0.05% Tween20 was used. Sf9 microsome fractions expressing human and mouse FLAPs were dispensed by 50 μL to a 96-well plate at 2 μg/mL. Furthermore, a test compound (25 μL) diluted 4-fold of the final concentration with the assay buffer was added and mixed therewith, and the mixture was incubated at room temperature for 10 min. Furthermore, 120 nM [^3H]-7-chloro-3-(5-((3-fluoropyridin-2-yl)methoxy)-2-methylphenyl)-3,4-dihydroquinazolin-2(1H)-one was added by 25 μL, and mixed therewith, and the mixture was incubated at room temperature for 60 min. Thereafter, the cells were transferred to a 96-well GF/B Unifilter plate with a FilterMate cell harvester, and washed 3 times with a wash buffer (100 mM Tris-HCl pH 7.5, 0.05% Tween20, 200 μL) cooled to 4° C. The GF/B Unifilter plate was dried at 37° C., Microscint 0 was added and measured by TopCount NXT (PerkinElmer). As for the inhibitory activity, the inhibitory rate was calculated wherein the [^3H]-7-chloro-3-(5-((3-fluoropyridin-2-yl)methoxy)-2-methylphenyl)-3,4-dihydroquinazolin-2(1H)-one binding amount in the presence of 10 μM sodium 3-(3-(tert-butylsulfanyl)-1-(4-chlorobenzyl)-5-isopropyl-1H-indol-2-yl)-2,2-dimethylpropanoate was 100%, and the [^3H]-7-chloro-3-(5-((3-fluoropyridin-2-yl)methoxy)-2-methylphenyl)-3,4-dihydroquinazolin-2(1H)-one binding amount in the presence of DMSO was 0%.

| Compound | inhibitory rate (%) |
| --- | --- |
| CCOC(=O)c1nccc2c1CN(c1cc3c(cc1Cl)CCC(c1ncccc1F)O3)C(=O)N2 (centres unmarked) [Example 56, ethyl 3-(6-chloro-2-(3-fluoropyridin-2-yl)-3,4-dihydro-2H-chromen-7-yl)-2-oxo-1,2,3,4-tetrahydropyrido[4,3-d]pyrimidine-5-carboxylate] | 110 |
| O=C1Nc2nccc(C(F)(F)F)c2CN1c1cc2c(cc1Cl)CCC(c1ncccc1F)O2 (centres unmarked) [Example 57, 3-(6-chloro-2-(3-fluoropyridin-2-yl)-3,4-dihydro-2H-chromen-7-yl)-5-(trifluoromethyl)-3,4-dihydropyrido[2,3-d]pyrimidin-2(1H)-one] | 105 |
| O=C1Nc2ccnc(N3CCOCC3)c2CN1c1cc2c(cc1Cl)CCC(c1ncccc1F)O2 (centres unmarked) [Example 58, 3-(6-chloro-2-(3-fluoropyridin-2-yl)-3,4-dihydro-2H-chromen-7-yl)-5-(morpholin-4-yl)-3,4-dihydropyrido[4,3-d]pyrimidin-2(1H)-one] | 117 |
| O=C1Nc2cc(N3CCOCC3)nc(C3CC3)c2CN1c1cc2c(cc1Cl)CCC(c1ncccc1F)O2 (centres unmarked) [Example 59, 3-(6-chloro-2-(3-fluoropyridin-2-yl)-3,4-dihydro-2H-chromen-7-yl)-5-cyclopropyl-7-(morpholin-4-yl)-3,4-dihydropyrido[4,3-d]pyrimidin-2(1H)-one] | 107 |
| Cn1nccc1-c1nccc2c1CN(c1cc3c(cc1Cl)CCC(c1ncccc1F)O3)C(=O)N2 (centres unmarked) [Example 60, 3-(6-chloro-2-(3-fluoropyridin-2-yl)-3,4-dihydro-2H-chromen-7-yl)-5-(1-methyl-1H-pyrazol-5-yl)-3,4-dihydropyrido[4,3-d]pyrimidin-2(1H)-one] | 113 |
| O=C1Nc2nccc(OCC(F)(F)F)c2CN1c1cc2c(cc1Cl)CCC(c1ncccc1F)O2 (centres unmarked) [Example 61, 3-(6-chloro-2-(3-fluoropyridin-2-yl)-3,4-dihydro-2H-chromen-7-yl)-5-(2,2,2-trifluoroethoxy)-3,4-dihydropyrido[2,3-d]pyrimidin-2(1H)-one] | 91 |
| Cn1cc(-c2nccc3c2CN(c2cc4c(cc2Cl)CCC(c2ncccc2F)O4)C(=O)N3)cn1 (centres unmarked) [Example 62, 3-(6-chloro-2-(3-fluoropyridin-2-yl)-3,4-dihydro-2H-chromen-7-yl)-5-(1-methyl-1H-pyrazol-4-yl)-3,4-dihydropyrido[4,3-d]pyrimidin-2(1H)-one] | 100 |
| Cc1cc2c(c(C)n1)CN(c1cc3c(cc1Cl)CCC(c1ncccc1F)O3)C(=O)N2 (centres unmarked) [Example 63, 3-(6-chloro-2-(3-fluoropyridin-2-yl)-3,4-dihydro-2H-chromen-7-yl)-5,7-dimethyl-3,4-dihydropyrido[4,3-d]pyrimidin-2(1H)-one] | 106 |
| COc1cccnc1C1CCc2cc(Cl)c(N3Cc4c(ccnc4C4CC4)NC3=O)cc2O1 (centres unmarked) [Example 64, 3-(6-chloro-2-(3-methoxypyridin-2-yl)-3,4-dihydro-2H-chromen-7-yl)-5-cyclopropyl-3,4-dihydropyrido[4,3-d]pyrimidin-2(1H)-one] | 94 |
| O=C1Nc2c(Cl)cnc(C3CC3)c2CN1c1cc2c(cc1Cl)CCC(c1ncccc1F)O2 (centres unmarked) [Example 65, 8-chloro-3-(6-chloro-2-(3-fluoropyridin-2-yl)-3,4-dihydro-2H-chromen-7-yl)-5-cyclopropyl-3,4-dihydropyrido[4,3-d]pyrimidin-2(1H)-one] | 105 |
| O=C1Nc2c(ccnc2C(F)(F)F)CN1c1cc2c(cc1Cl)CCC(c1ncccc1F)O2 (centres unmarked) [Example 66, 3-(6-chloro-2-(3-fluoropyridin-2-yl)-3,4-dihydro-2H-chromen-7-yl)-8-(trifluoromethyl)-3,4-dihydropyrido[3,4-d]pyrimidin-2(1H)-one] | 98 |
| Cc1cc2c(cc1N1Cc3c(ccnc3C(C)C)NC1=O)OC(c1ncccc1F)CC2 (centres unmarked) [Example 67, 3-(2-(3-fluoropyridin-2-yl)-6-methyl-3,4-dihydro-2H-chromen-7-yl)-5-isopropyl-3,4-dihydropyrido[4,3-d]pyrimidin-2(1H)-one] | 104 |
| O=C1Nc2ccnc(C(F)(F)F)c2CN1c1cc2c(cc1F)CCC(c1ncccc1F)O2 (centres unmarked) [Example 68, 3-(6-fluoro-2-(3-fluoropyridin-2-yl)-3,4-dihydro-2H-chromen-7-yl)-5-(trifluoromethyl)-3,4-dihydropyrido[4,3-d]pyrimidin-2(1H)-one] | 113 |
| COC(=O)c1cc2c(c(C3CC3)n1)CN(c1cc3c(cc1Cl)CCC(c1ncccc1F)O3)C(=O)N2 (centres unmarked) [Example 70, methyl 3-(6-chloro-2-(3-fluoropyridin-2-yl)-3,4-dihydro-2H-chromen-7-yl)-5-cyclopropyl-2-oxo-1,2,3,4-tetrahydropyrido[4,3-d]pyrimidine-7-carboxylate] | 101 |
| O=C(O)c1cc2c(c(C3CC3)n1)CN(c1cc3c(cc1Cl)CCC(c1ncccc1F)O3)C(=O)N2 (centres unmarked) [Example 71, 3-(6-chloro-2-(3-fluoropyridin-2-yl)-3,4-dihydro-2H-chromen-7-yl)-5-cyclopropyl-2-oxo-1,2,3,4-tetrahydropyrido[4,3-d]pyrimidine-7-carboxylic acid] | 107 |
| O=C1Nc2cc(Cl)nc(C3CC3)c2CN1c1cc2c(cc1Cl)CCC(c1ncccc1F)O2 (centres unmarked) [Example 72, 7-chloro-3-(6-chloro-2-(3-fluoropyridin-2-yl)-3,4-dihydro-2H-chromen-7-yl)-5-cyclopropyl-3,4-dihydropyrido[4,3-d]pyrimidin-2(1H)-one] | 104 |
| O=C1Nc2cc(CO)nc(C3CC3)c2CN1c1cc2c(cc1Cl)CCC(c1ncccc1F)O2 (centres unmarked) [Example 73, 3-(6-chloro-2-(3-fluoropyridin-2-yl)-3,4-dihydro-2H-chromen-7-yl)-5-cyclopropyl-7-(hydroxymethyl)-3,4-dihydropyrido[4,3-d]pyrimidin-2(1H)-one] | 109 |
| O=C(c1cc2c(c(C3CC3)n1)CN(c1cc3c(cc1Cl)CCC(c1ncccc1F)O3)C(=O)N2)N1CCOCC1 (centres unmarked) [Example 74, 3-(6-chloro-2-(3-fluoropyridin-2-yl)-3,4-dihydro-2H-chromen-7-yl)-5-cyclopropyl-7-(morpholin-4-ylcarbonyl)-3,4-dihydropyrido[4,3-d]pyrimidin-2(1H)-one] | 104 |
| CC(C)(O)c1cc2c(c(C3CC3)n1)CN(c1cc3c(cc1Cl)CCC(c1ncccc1F)O3)C(=O)N2 (centres unmarked) [Example 75, 3-(6-chloro-2-(3-fluoropyridin-2-yl)-3,4-dihydro-2H-chromen-7-yl)-5-cyclopropyl-7-(2-hydroxypropan-2-yl)-3,4-dihydropyrido[4,3-d]pyrimidin-2(1H)-one] | 103 |
| O=C(NC1CC1)c1cc2c(c(C3CC3)n1)CN(c1cc3c(cc1Cl)CCC(c1ncccc1F)O3)C(=O)N2 (centres unmarked) [Example 76, 3-(6-chloro-2-(3-fluoropyridin-2-yl)-3,4-dihydro-2H-chromen-7-yl)-N,5-dicyclopropyl-2-oxo-1,2,3,4-tetrahydropyrido[4,3-d]pyrimidine-7-carboxamide] | 105 |
| O=C1Nc2cncc(C(F)(F)F)c2CN1c1cc2c(cc1Cl)CCC(c1ncccc1F)O2 (centres unmarked) [Example 78, 3-(6-chloro-2-(3-fluoropyridin-2-yl)-3,4-dihydro-2H-chromen-7-yl)-5-(trifluoromethyl)-3,4-dihydropyrido[3,4-d]pyrimidin-2(1H)-one] | 105 |
| Cc1nc(C)c2c(c1Cl)CN(c1cc3c(cc1Cl)CCC(c1ncccc1F)O3)C(=O)N2 (centres unmarked) [Example 79, 5-chloro-3-(6-chloro-2-(3-fluoropyridin-2-yl)-3,4-dihydro-2H-chromen-7-yl)-6,8-dimethyl-3,4-dihydropyrido[3,4-d]pyrimidin-2(1H)-one] | 98 |
| COc1ncc(Cl)c2c1NC(=O)N(c1cc3c(cc1Cl)CCC(c1ncccc1F)O3)C2 (centres unmarked) [Example 80, 5-chloro-3-(6-chloro-2-(3-fluoropyridin-2-yl)-3,4-dihydro-2H-chromen-7-yl)-8-methoxy-3,4-dihydropyrido[3,4-d]pyrimidin-2(1H)-one] | 107 |
| O=C1Nc2c(N3CCOCC3)ncc(Cl)c2CN1c1cc2c(cc1Cl)CCC(c1ncccc1F)O2 (centres unmarked) [Example 81, 5-chloro-3-(6-chloro-2-(3-fluoropyridin-2-yl)-3,4-dihydro-2H-chromen-7-yl)-8-(morpholin-4-yl)-3,4-dihydropyrido[3,4-d]pyrimidin-2(1H)-one] | 102 |
| Cc1cc2c(cc1N1Cc3c(Cl)cc(C(=O)NC4CC4)cc3NC1=O)OC(c1ncccc1F)CC2 (centres unmarked) [Example 82, 5-chloro-N-cyclopropyl-3-(2-(3-fluoropyridin-2-yl)-6-methyl-3,4-dihydro-2H-chromen-7-yl)-2-oxo-1,2,3,4-tetrahydroquinazoline-7-carboxamide] | 101 |
| Cc1cc2c(c(C3CC3)n1)CN(c1cc3c(cc1C)CCC(c1ncccc1F)O3)C(=O)N2 (centres unmarked) [Example 83, 5-cyclopropyl-3-(2-(3-fluoropyridin-2-yl)-6-methyl-3,4-dihydro-2H-chromen-7-yl)-7-methyl-3,4-dihydropyrido[4,3-d]pyrimidin-2(1H)-one] | 96 |
